Data published in article PMC9221546, “New Phenylglycinamide Derivatives with Hybrid Structure as Candidates for New Broad-Spectrum Anticonvulsants” (Cells, 2022).
Like-named read-outs stand apart in the source and are kept apart here. Marks after values point to notes of the source that are not given here.

Experiments:
[1] = system: MES-induced seizures in mice; conditions: i.p., pretreatment 0.5 h (LEV 1.0 h); cited from earlier work
[2] = system: 6 Hz (32 mA) seizures in mice; conditions: i.p., pretreatment 0.5 h (LEV 1.0 h); cited from earlier work
[3] = system: 6 Hz (44 mA) seizures in mice; conditions: i.p., pretreatment 0.5 h; cited from earlier work
[4] = system: mice; conditions: i.p., acute neurological deficit, cited from earlier work
[5] = system: mice; experiment: Capsaicin-induced hypothermia model / core body temperature; type: in vivo; conditions: i.p.; compound 60 50 mg/kg, BCTC 20 mg/kg, capsaicin 5 mg/kg
Method: Capsaicin was dissolved in 1% DMSO and administered at a dose of 5 mg/kg at a time point 0 min. Compound 60 and BCTC (positive control) were suspended in 1% Tween 80 and administered 15 min before capsaicin (at time point -15 min). All compounds were injected i.p. at a constant volume of 10 mL/kg. Control animals received the respective vehicles (1% DMSO or 1% Tween 80). Changes in the rectal temperature were measured using an electronic thermometer (ThermoWorks, Alpine, UT, USA) by inserting the rectal probe to a depth of ~2 cm into the rectum of the mouse. The measurements were taken at −15, 0, 15, 30, 60, 90, 120, and 180 min. The differences in the rectal temperature from baseline (time -15 min for groups receiving compound 60 and BCTC in combination with vehicle or time 0 min for groups receiving vehicle and capsaicin or compound 60 and BCTC in combination with capsaicin) to the respective time point ΔT (°C) were then calculated and analyzed. The results are shown in Figure 4 (see Section 3 Results and Discussion).
Figure 4 Effects of compound 60 and BCTC alone (A) or in combination with capsaicin (B) on the core body temperature in mice. Capsaicin (CPS) was injected at 0 min, as indicated by the arrow. Compound 60 or BCTC were administered 15 min prior to CPS injection. The temperature was measured at −15, 0, 15, 30, 60, 90, 120, and 180 min. Since body temperature returned to control values 60 min after CPS injection, subsequent measurements are not shown. Control animals received vehicles (1% DMSO or 1% Tween 80). All the compounds were administered i.p. Each experimental group consisted of seven to eight animals. The data are presented as the mean differences (ΔT) in rectal temperature from baseline (time −15 for A and time 0 for B) to the respective time point. The data were analyzed with one-way ANOVA followed by Tukey’s post hoc test. ** p < 0.01, *** p < 0.001, **** p < 0.0001 vs. the control group; ^#### p < 0.0001 vs. the CPS-treated group.

Row | SMILES | ED50 MES [1] | ED50 6 Hz (32 mA) [2] | ED50 6 Hz (44 mA) [3] | TD50 (rotarod test) ([4]; ref 32) | TD50 (rotarod test) ([4]; ref 34) | effect on rectal (core body) temperature, given alone [5]
1 | COC[C@@H](NC(C)=O)C(=O)NCc1ccccc1 [LCS, Lacosamide] | 9.2 (8.5−10.0) mg/kg | 5.3 (3.5−7.8) mg/kg | 6.9 (5.4–8.6) mg/kg | – | – | –
2 | CC[C@@H](C(N)=O)N1CCCC1=O [LEV, Levetiracetam] | >500 mg/kg | – | 204.0 (154.5–269.5) mg/kg | >500 ** mg/kg | >500 ** mg/kg | –
3 | CCCC(CCC)C(=O)O [VPA, Valproic acid] | – | 130.6 (117.6−145.2) mg/kg | – | – | – | –
4 | COc1cc(CNC(=O)CCCC/C=C/C(C)C)ccc1O [capsaicin] | – | – | – | – | – | produced a significant drop in the rectal temperature
